Source: US20230365559A1, “NOVEL AMINOPYRIDINES AND THEIR USE IN TREATING CANCER” (priority 2020, published 2023)

Experiments:
ATM = ATM (Homo sapiens, UniProt Q13315); assay: ATM Human PIKK Kinase Enzymatic ELISA/EIA Assay, KinaseProfiler (Eurofins Discovery); format: biochemical; conditions: for remaining activity at 1 µM: read-out: ATM, Percent of control at 1 μM; for IC50: KinaseProfiler, Km ATP, Table 15, read-out: Inhibition of PIKK kinase activity ATM
HAP1/PRKDC−/− cells = assay: Radiosensitisation of DNA-PK null HAP1/PRKDC−/− cells, regrowth assay; format: cell-based, human; conditions: Homo sapiens, HAP1
human DNA-PK = human DNA-PK (Homo sapiens, UniProt P78527); assay: Inhibition of DNA-PKcs kinase activity, HotSpot assay (Reaction Biology), [γ-33P]-ATP phosphorylation of peptide substrate; format: biochemical; conditions: 10 μM ATP, 10 μg/ml DNA; mean of two replicates; Table 12; read-out: Inhibition of kinase activity (as IC50) DNA-PK (converted)
human PI3Kα (p110α/p85α) = human PI3Kα (p110α/p85α) (Homo sapiens, UniProt P42336); assay: Inhibition of PI3Kα kinase activity, ADP-Glo Assay (Reaction Biology); format: biochemical; conditions: 10 μM ATP; mean of two replicates; Table 12; read-out: Inhibition of kinase activity (as IC50) PICK
HAP1 cells = assay: Radiosensitisation of HAP1 wild type cells, regrowth assay; format: cell-based, human; conditions: Homo sapiens, HAP1; read-out: HAP1 wt IC50
UT-SCC-54C cells = assay: Radiosensitisation of UT-SCC-54C HNSCC cells, regrowth (sulforhodamine B) assay, oxic (Table 16); format: cell-based, human

Sequence of ATM (Q13315 whole entry): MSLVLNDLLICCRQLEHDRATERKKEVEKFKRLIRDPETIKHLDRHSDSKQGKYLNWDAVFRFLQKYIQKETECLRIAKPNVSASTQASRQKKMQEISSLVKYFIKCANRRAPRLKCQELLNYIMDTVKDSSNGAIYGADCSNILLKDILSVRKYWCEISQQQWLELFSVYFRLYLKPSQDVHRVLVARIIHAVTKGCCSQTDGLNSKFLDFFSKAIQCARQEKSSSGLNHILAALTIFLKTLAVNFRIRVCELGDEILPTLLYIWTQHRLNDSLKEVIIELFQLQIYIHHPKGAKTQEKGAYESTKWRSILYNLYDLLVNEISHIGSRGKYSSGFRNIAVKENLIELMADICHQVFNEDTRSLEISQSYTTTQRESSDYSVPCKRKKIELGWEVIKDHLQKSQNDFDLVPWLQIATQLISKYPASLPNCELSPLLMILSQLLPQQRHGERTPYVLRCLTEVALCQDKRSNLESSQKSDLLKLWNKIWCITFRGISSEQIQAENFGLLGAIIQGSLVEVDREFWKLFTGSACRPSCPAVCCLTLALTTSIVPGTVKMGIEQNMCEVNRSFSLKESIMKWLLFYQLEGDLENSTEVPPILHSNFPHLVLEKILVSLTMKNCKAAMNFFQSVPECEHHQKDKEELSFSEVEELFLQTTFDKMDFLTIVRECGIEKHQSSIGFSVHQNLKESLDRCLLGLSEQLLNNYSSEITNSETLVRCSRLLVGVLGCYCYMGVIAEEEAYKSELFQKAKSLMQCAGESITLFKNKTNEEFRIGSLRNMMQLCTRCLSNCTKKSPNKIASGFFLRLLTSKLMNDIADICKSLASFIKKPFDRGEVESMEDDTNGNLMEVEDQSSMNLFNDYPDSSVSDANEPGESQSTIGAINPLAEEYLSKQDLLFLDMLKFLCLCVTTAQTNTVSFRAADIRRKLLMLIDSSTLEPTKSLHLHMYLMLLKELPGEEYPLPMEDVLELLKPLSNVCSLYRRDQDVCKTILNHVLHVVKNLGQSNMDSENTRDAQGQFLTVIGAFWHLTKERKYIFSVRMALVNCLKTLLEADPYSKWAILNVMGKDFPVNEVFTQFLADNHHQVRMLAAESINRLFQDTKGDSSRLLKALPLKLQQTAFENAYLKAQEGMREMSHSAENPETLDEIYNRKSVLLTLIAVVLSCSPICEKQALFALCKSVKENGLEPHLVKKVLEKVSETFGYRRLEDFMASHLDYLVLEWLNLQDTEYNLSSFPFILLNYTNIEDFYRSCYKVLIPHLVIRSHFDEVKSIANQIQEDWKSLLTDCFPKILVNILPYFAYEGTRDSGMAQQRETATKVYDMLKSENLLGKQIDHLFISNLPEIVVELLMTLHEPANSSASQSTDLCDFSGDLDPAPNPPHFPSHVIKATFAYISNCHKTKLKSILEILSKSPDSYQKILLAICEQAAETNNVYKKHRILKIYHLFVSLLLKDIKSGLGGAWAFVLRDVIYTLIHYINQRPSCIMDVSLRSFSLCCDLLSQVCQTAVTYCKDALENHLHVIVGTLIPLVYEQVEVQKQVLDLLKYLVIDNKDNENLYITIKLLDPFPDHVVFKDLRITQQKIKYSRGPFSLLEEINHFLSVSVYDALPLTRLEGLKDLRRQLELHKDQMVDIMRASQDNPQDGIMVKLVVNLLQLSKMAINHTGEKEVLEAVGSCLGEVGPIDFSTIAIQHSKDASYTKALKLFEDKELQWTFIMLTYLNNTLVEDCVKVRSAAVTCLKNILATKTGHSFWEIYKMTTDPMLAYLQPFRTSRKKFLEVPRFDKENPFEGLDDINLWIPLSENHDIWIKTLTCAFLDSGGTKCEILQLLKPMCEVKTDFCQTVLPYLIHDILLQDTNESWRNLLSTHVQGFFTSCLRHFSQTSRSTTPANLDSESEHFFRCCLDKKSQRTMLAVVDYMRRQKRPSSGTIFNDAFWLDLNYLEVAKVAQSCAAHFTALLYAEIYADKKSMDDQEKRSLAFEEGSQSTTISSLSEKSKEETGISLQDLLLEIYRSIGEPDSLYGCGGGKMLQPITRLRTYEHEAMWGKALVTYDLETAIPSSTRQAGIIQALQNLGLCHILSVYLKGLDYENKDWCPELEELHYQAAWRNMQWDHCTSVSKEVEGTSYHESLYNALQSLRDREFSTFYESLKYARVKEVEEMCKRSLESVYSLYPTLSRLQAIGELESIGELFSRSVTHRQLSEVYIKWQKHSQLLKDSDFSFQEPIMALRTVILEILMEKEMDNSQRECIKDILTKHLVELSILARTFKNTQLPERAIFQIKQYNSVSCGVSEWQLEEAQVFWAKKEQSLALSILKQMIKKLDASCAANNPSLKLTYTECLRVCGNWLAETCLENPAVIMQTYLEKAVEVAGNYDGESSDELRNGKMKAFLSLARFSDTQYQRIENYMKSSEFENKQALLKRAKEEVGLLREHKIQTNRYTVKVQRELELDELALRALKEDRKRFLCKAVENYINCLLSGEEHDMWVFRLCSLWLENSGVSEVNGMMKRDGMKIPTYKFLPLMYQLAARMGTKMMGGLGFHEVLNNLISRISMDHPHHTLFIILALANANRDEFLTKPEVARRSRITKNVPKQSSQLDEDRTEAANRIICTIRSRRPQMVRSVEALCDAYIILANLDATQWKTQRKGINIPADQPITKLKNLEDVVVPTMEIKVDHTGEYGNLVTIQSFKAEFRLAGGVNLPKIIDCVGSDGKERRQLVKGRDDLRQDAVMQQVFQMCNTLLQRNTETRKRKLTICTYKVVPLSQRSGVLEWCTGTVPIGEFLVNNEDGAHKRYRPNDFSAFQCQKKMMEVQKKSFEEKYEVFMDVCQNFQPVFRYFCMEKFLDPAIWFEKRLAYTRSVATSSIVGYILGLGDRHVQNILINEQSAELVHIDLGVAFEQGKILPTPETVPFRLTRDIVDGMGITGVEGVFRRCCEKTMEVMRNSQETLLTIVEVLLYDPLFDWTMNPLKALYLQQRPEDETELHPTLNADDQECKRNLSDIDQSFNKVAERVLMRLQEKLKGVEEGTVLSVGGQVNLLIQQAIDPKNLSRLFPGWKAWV
Sequence of human PI3Kα (p110α/p85α) (P42336 whole entry): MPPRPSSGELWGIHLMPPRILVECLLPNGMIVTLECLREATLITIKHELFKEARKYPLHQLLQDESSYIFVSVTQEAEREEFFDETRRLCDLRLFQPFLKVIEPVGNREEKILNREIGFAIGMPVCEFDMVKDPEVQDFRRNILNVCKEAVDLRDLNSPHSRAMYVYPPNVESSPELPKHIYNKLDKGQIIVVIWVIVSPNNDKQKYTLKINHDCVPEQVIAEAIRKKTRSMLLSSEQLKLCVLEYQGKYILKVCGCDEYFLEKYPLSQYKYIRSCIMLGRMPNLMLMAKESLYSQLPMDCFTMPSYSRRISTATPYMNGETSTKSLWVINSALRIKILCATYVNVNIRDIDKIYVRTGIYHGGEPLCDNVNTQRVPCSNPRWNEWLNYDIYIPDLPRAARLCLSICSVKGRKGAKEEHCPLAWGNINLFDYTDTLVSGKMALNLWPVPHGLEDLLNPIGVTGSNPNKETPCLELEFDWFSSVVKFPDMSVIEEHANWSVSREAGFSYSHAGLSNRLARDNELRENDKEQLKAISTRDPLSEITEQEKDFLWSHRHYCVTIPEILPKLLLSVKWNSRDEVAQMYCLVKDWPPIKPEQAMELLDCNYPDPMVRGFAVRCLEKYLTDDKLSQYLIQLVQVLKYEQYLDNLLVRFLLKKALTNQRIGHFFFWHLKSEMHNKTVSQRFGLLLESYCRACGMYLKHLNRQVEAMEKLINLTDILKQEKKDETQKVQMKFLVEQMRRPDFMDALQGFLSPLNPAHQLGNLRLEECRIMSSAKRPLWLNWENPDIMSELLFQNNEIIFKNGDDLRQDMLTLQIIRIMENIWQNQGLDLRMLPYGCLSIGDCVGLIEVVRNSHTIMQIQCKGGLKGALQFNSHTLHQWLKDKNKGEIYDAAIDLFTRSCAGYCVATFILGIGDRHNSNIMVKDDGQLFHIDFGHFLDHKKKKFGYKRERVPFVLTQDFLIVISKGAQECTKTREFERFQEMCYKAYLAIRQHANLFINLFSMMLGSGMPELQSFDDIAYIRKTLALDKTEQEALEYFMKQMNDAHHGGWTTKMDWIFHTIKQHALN
Sequence of human PI3Kα (p110α/p85α) (P27986 whole entry partner): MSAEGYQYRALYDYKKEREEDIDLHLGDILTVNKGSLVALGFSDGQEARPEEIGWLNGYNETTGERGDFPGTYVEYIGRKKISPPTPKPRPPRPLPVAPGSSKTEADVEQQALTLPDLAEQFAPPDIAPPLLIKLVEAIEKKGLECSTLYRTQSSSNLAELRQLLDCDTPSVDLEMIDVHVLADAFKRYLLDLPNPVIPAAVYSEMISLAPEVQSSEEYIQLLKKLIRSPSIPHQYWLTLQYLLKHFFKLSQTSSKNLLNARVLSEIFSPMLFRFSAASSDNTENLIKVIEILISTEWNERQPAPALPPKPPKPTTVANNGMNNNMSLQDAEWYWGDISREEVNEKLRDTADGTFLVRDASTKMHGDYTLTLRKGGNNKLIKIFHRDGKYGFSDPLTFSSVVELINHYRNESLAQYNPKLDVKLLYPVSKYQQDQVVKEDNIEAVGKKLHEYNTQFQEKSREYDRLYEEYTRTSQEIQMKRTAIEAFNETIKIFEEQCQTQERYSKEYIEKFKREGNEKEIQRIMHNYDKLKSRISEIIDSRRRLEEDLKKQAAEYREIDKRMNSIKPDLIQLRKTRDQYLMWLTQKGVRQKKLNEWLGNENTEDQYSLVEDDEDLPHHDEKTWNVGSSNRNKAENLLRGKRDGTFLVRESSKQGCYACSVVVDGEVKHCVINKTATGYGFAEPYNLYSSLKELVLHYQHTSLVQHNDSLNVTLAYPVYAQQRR

Row | Compound | remaining activity at 1 µM (ATM) [%] | IC50 (ATM) [µM] | further results
1 | Cc1cc(NCCN(C)C)ccc1Nc1cc2c(cn1)n(C)c(=O)n2C1CCCC1 [Compound 56, 1-Cyclopentyl-6-((4-((2-(dimethylamino)ethyl)amino)-2-methylphenyl)amino)-3-methyl-1,3-dihydro-2H-imidazo[4,5-c]pyridin-2-one] | 86 |  | 
2 | Cn1c(=O)n(C2CCCC2)c2cc(Nc3ccc4ncccc4c3)ncc21 [Compound 63, 1-Cyclopentyl-3-methyl-6-(quinolin-6-ylamino)-1,3-dihydro-2H-imidazo[4,5-c]pyridin-2-one] |  | 0.719 | 
3 | Cn1c(=O)n(C2CCCC2)c2cc(Nc3cnc4ccccc4c3)ncc21 [Compound 64, 1-Cyclopentyl-3-methyl-6-(quinolin-3-ylamino)-1,3-dihydro-2H-imidazo[4,5-c]pyridin-2-one] |  | 1.1 | 
4 | Cn1c(=O)n(C2CCCC2)c2cc(Nc3cccc4ncccc34)ncc21 [Compound 65, 1-Cyclopentyl-3-methyl-6-(quinolin-5-ylamino)-1,3-dihydro-2H-imidazo[4,5-c]pyridin-2-one] | 93 |  | 
5 | Cn1c(=O)n(C2CCCC2)c2cc(Nc3cccc4cnccc34)ncc21 [Compound 66, 1-Cyclopentyl-6-(isoquinolin-5-ylamino)-3-methyl-1,3-dihydro-2H-imidazo[4,5-c]pyridin-2-one] | 92 |  | 
6 | Cc1cc(Nc2cc3c(cn2)n(C)c(=O)n3C2CCCC2)c2ccccc2n1 [Compound 67, 1-Cyclopentyl-3-methyl-6-((2-methylquinolin-4-yl)amino)-1,3-dihydro-2H-imidazo[4,5-c]pyridin-2-one] | 88 |  | 
7 | Cn1c(=O)n(C2CCCC2)c2cc(Nc3ccc4nccnc4c3)ncc21 [Compound 68, 1-Cyclopentyl-3-methyl-6-(quinoxalin-6-ylamino)-1,3-dihydro-2H-imidazo[4,5-c]pyridin-2-one] |  | 0.94 | 
8 | Cc1cc(Cl)ccc1Nc1cc2c(cn1)n(C)c(=O)n2C1CCOC1 (stereo not shown) [Compound 116, 6-((4-Chloro-2-methylphenyl)amino)-3-methyl-1-(tetrahydrofuran-3-yl)-1,3-dihydro-2H-imidazo[4,5-c]pyridin-2-one] |  |  | IC50 (HAP1/PRKDC−/− cells): > 10 µM; IC50 (human DNA-PK): 0.0049 µM; IC50 (human PI3Kα (p110α/p85α)): 5.46 µM; IC50 (HAP1 cells): > 10 µM; IC50 (UT-SCC-54C cells; Homo sapiens, read-out: IC50): > 10 µM; S50 (UT-SCC-54C cells; compound in combination with 3 Gy of radiation, 50% inhibition of regrowth fraction, UT-SCC-54C, oxic): 0.06 µM
